The conditions of data set [1]: 2 mg/l in 0.1 N H2SO4; Parker method; cited from earlier work.
The nature of data set [2]: Solubility in organic solvents. Particulars: organic solvent or mixture; in tetrahydrofuran, acetone or methanol. The data set is classed as physicochemical.
The nature of data set [3]: Stability of a solution in tetrahydrofuran (high pressure liquid chromatography and fluorimetric detection). Particulars: 2.10^-3 mole/l in tetrahydrofuran. In kind it is physicochemical. From the text:
The stability of a 2.10^-3 mole/l solution of luminarine-1 in tetrahydrofuran was studied by high pressure liquid chromatography and fluorimetric detection.

Data set [4] in a line: Fluorescence and absorbance measurements. In kind it is physicochemical. Particulars: for ε, molecular extinction coefficient: 365 nm; for S, fluorescence sensitivity: Table 2; for RF, quantum efficiency of fluorescence: acetone and ethylacetate 75:25, 10^-6 mole/l, 20°C, relative to quinine disulphate.
Data set [5] can be described thus: Chemiluminescence measurements. The data set is classed as physicochemical. The note with it: for RC, quantum efficiency of chemiluminescence: 10^-3 mole/l coumarin solution; for RE, excitation efficiency: RC = Rex × RF.
The mark [6] stands for this setting: TCPO and H2O2, (C102) 1.4 × 10^-3.
The mark [7] stands for this setting: TCPO and H2O2, (C102) 1.4 × 10^-6.
[8] abbreviates: TCPO and H2O2, (C102) 1.4 × 10^-7.
[9] abbreviates: TCPO and H2O2, (C102) 1.4 × 10^-8.
Setting [10] is: TCPO and H2O2, (C102) 1.4 × 10^-9.

≈ marks a conversion by molar mass, not a printed value.

Turning to `C=C[C@H]1CN2CC[C@H]1C[C@H]2[C@H](O)c1ccnc2ccc(OC)cc12` [quinine disulphate], in data set [1], the “quantum efficiency of fluorescence (reference)” value is 0.546.

A word on the solubility: it is the dissolved amount per volume that the medium holds. With `O=C(Cc1cc(=O)oc2c3c4c(cc12)CCCN4CCC3)ON1C(=O)CCC1=O` [luminarine-1, tetrahydro-2,3,6,7,1H,5H, 11H(1)-benzo-pyrano(6,7,8-ij) succinimidoxycarbonylmethyl-9 quinolizinone-11], the solubility in data set [2] is approximately 1000 µg/mL (≈ 2520 µM). Also, the “stability of solution at ambient temperature” value in data set [3] (ambient temperature, hydrolysis to acid (VIII)) is “deteriorates significantly in a few hours at ambient temperature”. Further, in data set [3] (frozen), the “stability of frozen solution” value was “at least two months without any apparent deterioration”.

For the molecule `CCN(CC)c1ccc2c(C)cc(=O)oc2c1` [COUMARIN-1, dimethylamino-7 methyl-4 coumarin], in data set [4], the “ε, molecular extinction coefficient” value is reported as 38 000; the “S, fluorescence sensitivity” value was 57 10^3; the “RF, quantum efficiency of fluorescence” value stood at 0.55. In addition, in data set [5] (DNPO and H2O2), the “RC, quantum efficiency of chemiluminescence” value (“RC, quantum efficiency” for short) is 0.18 10^2 E · mole^-1 and the “RE, excitation efficiency” value is given as 0.33 10^-2. In data set [5] (TCPO and H2O2, pH 7.5), the “RC, quantum efficiency” value is 0.37 10^2 E · mole^-1 and the RE, excitation efficiency stood at 0.0067.

As to `Cc1cc(=O)oc2cc(N(C)C)ccc12` [COUMARIN-311, dimethylamino-7 methyl-4 coumarin], in data set [4], the ε, molecular extinction coefficient stood at 26900 M⁻¹ cm⁻¹; the “S, fluorescence sensitivity” value is 40 10^3; the “RF, quantum efficiency of fluorescence” value amounted to 0.52. In data set [5] (DNPO and H2O2), the “RC, quantum efficiency” value is 0.13 10^2 E · mole^-1 and the “RE, excitation efficiency” value was 0.24 10^-2. Also, in data set [5] (TCPO and H2O2, pH 7.5), the “RC, quantum efficiency” value is 0.17 10^2 E · mole^-1 and the RE, excitation efficiency was 0.0032.

For the molecule `Cc1cc(=O)oc2c3c4c(cc12)CCCN4CCC3` [COUMARIN-102, tetrahydro-2,3,5,6,7,1H,5H,11H-(1)-benzopyrano (6,7,8-ij) methyl-9 quinolizinone-11], the ε, molecular extinction coefficient in data set [4] is 23000 M⁻¹ cm⁻¹. In data set [4], the “S, fluorescence sensitivity” value is recorded as 36 10^3. Further, the “comparison of fluorescence, absorbance and chemiluminescence properties” value in data set [4] (Tables 2 and 3, versus coumarin-1 and coumarin-311) was “has the best fluorescence, absorbance and chemiluminescence properties”. Moreover, the “RF, quantum efficiency of fluorescence” value in data set [4] is recorded as 0.57. For the same molecule, the “RC, quantum efficiency” value is listed as 0.26 10^2 E · mole^-1 in data set [5] (DNPO and H2O2); 0.37 10^2 E · mole^-1 in data set [5] (TCPO and H2O2, pH 7.5). For the same molecule, the “RE, excitation efficiency” value in data set [5] (DNPO and H2O2) is 0.45 10^-2; in data set [5] (TCPO and H2O2, pH 7.5) it was 0.0065. Also, in data set [5] (TCPO and H2O2), the “chemiluminescence efficiency RC as a function of concentration” value is listed as “increases with the coumarin 102 concentration”. For the same molecule, the “Imax, maximum intensity” value in data set [5] (setting [6]) came out at 301 A.U; in data set [5] (setting [7]), 75 A.U; in data set [5] (setting [8]), 31 A.U; in data set [5] (setting [9]), 3.2 A.U; in data set [5] (setting [10]), 0.3 A.U; in data set [5] (pH 4), 24 A.U. In addition, the “Imax, maximum intensity” value in data set [5] (pH 5) stood at 17 A.U; in data set [5] (pH 6), 25 A.U; in data set [5] (pH 7), 110 A.U; in data set [5] (pH 8) it was 245 A.U. The “RC, chemiluminescence efficiency” value is reported as 12.0 10^4 E · mol^-1 in data set [5] (setting [6]); 4.14 10^4 E · mol^-1 in data set [5] (setting [7]); 2.31 10^4 E · mol^-1 in data set [5] (setting [8]); 0.40 10^4 E · mol^-1 in data set [5] (setting [9]); 0.20 10^4 E · mol^-1 in data set [5] (setting [10]); 1.52 10^4 E · mol^-1 in data set [5] (pH 4). Also, the “RC, chemiluminescence efficiency” value in data set [5] (pH 5) is reported as 1.58 10^4 E · mol^-1; in data set [5] (pH 6), 2.34 10^4 E · mol^-1; in data set [5] (pH 7) it was 2.23 10^4 E · mol^-1; in data set [5] (pH 8), 1.60 10^4 E · mol^-1. Further, the “T1/2, time for reaching half the maximum intensity after the maximum time” value in data set [5] (setting [6]) was 0.10 min; in data set [5] (setting [7]), 0.15 min; in data set [5] (setting [8]), 0.12 min; in data set [5] (setting [9]), 0.10 min; in data set [5] (setting [10]) it was 0.08 min; in data set [5] (pH 4) it was 5.0 min. Further, the “T1/2, time for reaching half the maximum intensity after the maximum time” value in data set [5] (pH 5) is 6.0 min; in data set [5] (pH 6) it was 5.6 min; in data set [5] (pH 7), 1.8 min; in data set [5] (pH 8), 0.4 min. Also, the “Tmax, time for reaching the maximum intensity” value in data set [5] (setting [6]) came out at 0.2 min; in data set [5] (setting [7]) it was 0.2 min; in data set [5] (setting [8]), 0.2 min; in data set [5] (setting [9]) it was 0.2 min; in data set [5] (setting [10]), 0.2 min; in data set [5] (pH 4) it was 0.8 min. Moreover, the “Tmax, time for reaching the maximum intensity” value is 1.0 min in data set [5] (pH 5), 0.8 min in data set [5] (pH 6), 0.4 min in data set [5] (pH 7) and 0.2 min in data set [5] (pH 8). Also, the “chemiluminescence efficiency as a function of pH” value in data set [5] (pH 4 to 8) was “rises up to pH6 and then falls”. The “maximum intensity as a function of pH” value in data set [5] (pH 4 to 8) is on record as “increases significantly with the pH”. In addition, the “Tmax and T1/2 as a function of pH” value in data set [5] (pH beyond 5) is on record as “decrease when the pH increases beyond 5”.
